Measured values: patent US7390826B2, “Inhibitors of animal cell motility and growth” (The Board of Trustees of The University of Illinois, priority 2002, dated 2008)
Entries after “also recorded” stand apart in the source; their conditions may differ. Where two headings read alike, the source gives them in different places.

Legend:
[1] = system: Xenopus laevis embryos; test: frog embryo morphogenesis assay (scoring of developmental defects); format: in vivo; conditions: for EC50: Xenopus laevis, 72 h
From the text: In order to identify compounds that specifically perturb morphogenesis in the frog embryo, a suitable method for scoring embryos by characteristic defects was developed. A useful starting point was the “dorso-anterior index” (DAI). The DAI originally was constructed by adding new morphological characteristics to the older “index of axis deficiency” (S. R. Scharf et al., Dev. Biol., 99, 75-87 (1983)). The DAI is a scale of dorsoanterior development wherein embryos are assigned a score based on degree of dorsoanterior phenotype (K. R. Kao et al., Dev. Biol., 127, 64-77 (1988)). The scale encompasses a score of 0 (for the most axis-deficient or ventralized embryos) to 10 (for embryos with the most enhanced dorsoanterior structures), with a score of 5 signifying a normal embryo.
Because the DAI focuses only on dorsoanterior phenotypes, other categories were added to describe possible defects more comprehensively, with an emphasis on characteristics that are easily and unambiguously recognized in intact embryos, and that are diagnostic of possible effects on morphogenesis during gastrulation and neurulation. The most useful and readily scored categories that covered the most frequent deficiencies were: reduced anterior structures and microcephaly, delayed appearance or absence of eye pigmentation, overall shortness along the anteroposterior axis, bent axis, bent tail only, reduced posterior structures/tail, malformed or reduced fins, delayed or failed neural tube closure (neural fold fusion), abnormal pigmentation pattern, ventral swelling (edema), and delayed or abnormal visceral organogenesis and yolk resorption. In addition, blastopore closure, an earlier process that marks the completion of gastrulation, was observed.
In these tests, test compounds were added individually to wells each containing 4-8 embryos in 12-well plates. Embryos at stage 8.5-9, according to the classification of Nieuwkoop and Faber (P. I. Nieuwkoop et al., Normal Table of Xenopus laevis (Daudin). Amsterdam: North-Holland Publ.) (1967)), were used because these are late blastula stages before gastrulation begins at stage 10, which allowed focusing primarily on compounds that affect morphogenetic events in gastrulation and neurulation. These embryos, therefore, have undergone a midblastula transition at stage 8 (cleavage division 12) when zygotic transcription begins (J. Newport et al., Cell, 30, 675-686 (1982); J. Newport et al., Cell, 30, 687-696 (1982)) but have not yet started the morphogenetic movements of gastrulation.
Standard procedures were used in the care of animals, gamete preparation, fertilization of oocytes, and culture of embryos (B. K. Kay et al., Methods in Cell Biology, Volumn 36 (San Diego: Academic Press, Inc.) (1991)). In order to stimulate ovulation, female frogs were injected with 500 units of human chorionic gonadotropin (HCG). Eggs were squeezed from female frogs 12 hours later. Testes were removed from euthanized male frogs that had been primed with 50 units of HCG 4-6 hours earlier. The testes were stored at 4° C. in single strength Marc's Modified Ringer's solution with 50 μg/ml gentamycin and used for no more than 10 days. Small pieces of testes were macerated and spread over eggs for in vitro fertilization in Petri dishes. Fertilized eggs were placed in one-tenth strength Modified Barth's Saline (MBS) with 50 μg/ml gentamycin at constant temperature (19° C.) in a temperature-controlled incubator and development allowed to proceed under these conditions. Embryos were dejellied by briefly swirling them in a solution of 2% (w/v) L-cysteine, pH 8.0. The embryos then were rinsed extensively with one-tenth strength MBS to wash out the cysteine. Experiments were started within an hour of dejellying the embryos.
Experiments were carried out in 12-well flat-bottom polystyrene plates with 4-8 embryos per well in 1.0 ml of one-tenth strength MBS with 50 μg/ml gentamycin at 19° C. […]

[2] = system: MDCK cells; test: MDCK cell proliferation; format: cell-based, canine; conditions: 50 μM
Procedure: In FIG. 2A, cells were plated at low cell density (1×10^4 cells/mL) and allowed to attach and begin to grow for 48 hours prior to the start of experiment. The treatments were 0.1% DMSO (control, n=9 cultures), 50 μM compound 1 (n=8), or 50 μM compound 11 (n=7). Reported values are mean with SEM of the percent increase in cell number from 0 to 48 hours after addition of compound 1.
The values were mean with SEM of the percent increase in cell number another 48 hours after replacement of medium containing 50 μM compound 1 (n=8 cultures) or 0.1% DMSO (n=9) with fresh medium containing 0.1% DMSO.
MDCK cell proliferation: MDCK cells were plated on multiwell tissue culture plates at low density ([…]). Cells were allowed to attach and begin to grow for 48 hours before the start of the experiment. Fresh medium with or without compound was then added, and cells were incubated for 48 hours. At both 0 and 48 hours, some of the parallel wells for control and compound treatments were washed twice with PBS and treated with trypsin/EDTA solution to detach the cells. An equal volume of medium was added, cells were collected and counted using a hemacytometer. For reversibility, some of the parallel cultures for both control and compound treatments were grown another 48 hours after washing twice with PBS and replacing medium with fresh compound-free medium. At both the time of washing out and 48 hours later, some of the parallel wells for control and compound treatments were washed twice with PBS, detached from the plates with trypsin/EDTA solution, and the number of cells was counted.

[3] = system: MDCK cells; test: Trypan blue exclusion cell viability assay; format: cell-based, canine
From the text: Cells also remain normal in morphology with both cell-substratum and cell-cell adhesion intact after treatment with compound 1.

[4] = system: Escherichia coli (DH5a strain); test: bacterial growth (absorbance at 600 nm); format: cell-based; conditions: 50 μM
Procedure: (§1) Reported values are the mean ±SEM for triplicate samples.
(§2) Bacterial growth: Staphylococcus aureus or Escherichia coli (DH5a strain) were grown in Luria-Bertani (LB) medium for 12 hours at 37° C. in a shaking incubator. Dilutions into fresh LB medium with 0.1% DMSO (solvent carrier control) or 50 μM compound 1 were made to an absorbance at 600 nm (A600) of about 0.1. Bacteria were incubated at 37° C. with shaking during the experiment, and A600 measurements were made at set time intervals during log growth phase until the plateau phase was reached.

[5] = system: Staphylococcus aureus; test: bacterial growth (absorbance at 600 nm); format: cell-based; conditions: 50 μM; for absorbance at 600 nm: mean ± SEM
Procedure: as §1, §2

[6] = system: Keller sandwich explants; test: convergent extension in Keller sandwich explants; parameters: species or system frog
From the text: It is hypothesized, but not relied upon herein, that the effects of compound 1 are mediated by an activity or activities after stage 9 during gastrulation and neurulation, and its effects on blastopore closure and anteroposterior elongation are consistent with inhibition of convergent extension. […] Therefore, compound 1 affects cell motility, cell polarity, and/or cell adhesion in the embryo.

C/C=C/C(=O)N1C(=O)OC[C@@H]1Cc1ccccc1 [Compound 1, (4S)-3-((E)-2-butenoyl)-4-benzyl-2-oxazolidinone]
reduction in the length of the tail ([1]; 15 μM added at 2-cell stage): evident
effects on anteroposterior elongation, head and eye development, visceral organogenesis and yolk resorption ([1]; 15 μM added at 2-cell stage, 48 hours): significant effects
anteroposterior length, head development, eye pigmentation, visceral organogenesis and yolk resorption versus control embryos ([1]; 15 μM added at stage 8.5-9, 48, 72 or 96 hours after treatment, Student's t-test): significantly different
exposure before washing out with no significant effect on later development ([1]; 15 μM, stage 8.5-9 embryos): up to 9 hours
exposure resulting in significant defects in postneurula analyses ([1]; 15 μM, stage 8.5-9 embryos): ≥ 12 h
EC50 ([1]; read-out: EC50 with respect to the defective phenotype at 72 hr following treatment): 13.9 µM
EC50 ([1]; read-out: log EC50+standard error of log EC50 (converted)): 13.9 µM
concentration lethal to the embryos ([1]; frog embryos): 2 to 3 times the EC50
blastopore closure in gastrulating embryos ([1]; treatment at stage 8.5-9 or 2-cell stage): delayed
inhibition of MDCK cell proliferation (percent increase in cell number) ([2]; 0 to 48 hours): reversibly inhibited MDCK cell proliferation
reversibility of inhibition of cell proliferation ([2]; another 48 hours after washing out): reversible
toxicity at concentrations that inhibit cell migration [3]: no general toxicity; also recorded: no evidence of toxicity or metabolic distress
inhibition of growth of Escherichia coli (Gram-negative) [4]: does not inhibit the growth
inhibition of growth of Staphylococcus aureus (Gram-positive) [5]: does not inhibit the growth
absorbance at 600 nm ([5]; 0 hours): 0.117 ± 0.037
absorbance at 600 nm ([5]; 1 hours): 0.160 ± 0.056
absorbance at 600 nm ([5]; 2 hours): 0.332 ± 0.130
absorbance at 600 nm ([5]; 3 hours): 0.615 ± 0.162
absorbance at 600 nm ([5]; 4 hours): 0.937 ± 0.181
absorbance at 600 nm ([5]; 27 hours): 3.265 ± 0.196
absorbance at 600 nm ([5]; 31 hours): 3.608 ± 0.271
convergent extension [6]: inhibits convergent extension
